Source: patent publication US8501770B2 (ArQule, Inc., priority 2009, dated 2013)

Target: Full-length inactive AKT1 (Homo sapiens, UniProt P31749)
Assay: Inactive Akt Alpha Screen Assay
Format: biochemical
Conditions: AlphaScreen assay (values not marked with *); read-out: Akt1 IC50, (AlphaScreen) (μM) (or if marked with “*” HTRF assay)
Outline: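 AlphaScreen read-out (excitation 640 nm, emission 570 nm) after 90 min incubation at room temperature in the dark. Signal comes from crosstide phosphorylation by AKT1, which was activated by added PDK1, MAPKAPK2, ATP and lipid vesicles, captured via phospho-AKT substrate antibody and streptavidin beads.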

Full-length inactive AKT1, sequence (P31749 whole entry): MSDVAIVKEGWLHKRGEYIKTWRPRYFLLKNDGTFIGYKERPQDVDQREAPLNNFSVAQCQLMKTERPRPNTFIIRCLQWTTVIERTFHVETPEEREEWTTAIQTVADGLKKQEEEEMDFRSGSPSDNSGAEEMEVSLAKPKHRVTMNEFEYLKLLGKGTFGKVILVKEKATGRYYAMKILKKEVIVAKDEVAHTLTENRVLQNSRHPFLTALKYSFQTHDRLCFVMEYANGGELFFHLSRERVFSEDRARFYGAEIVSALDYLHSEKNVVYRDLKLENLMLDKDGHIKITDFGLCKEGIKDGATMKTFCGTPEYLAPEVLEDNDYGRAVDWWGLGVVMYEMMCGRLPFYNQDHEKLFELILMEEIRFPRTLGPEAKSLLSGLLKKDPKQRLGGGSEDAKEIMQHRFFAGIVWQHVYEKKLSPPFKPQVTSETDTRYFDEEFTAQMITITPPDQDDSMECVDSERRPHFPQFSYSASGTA

| IC50 | SMILES |
| --- | --- |
| 0.0064 µM | CNC(=O)c1cc(F)cc(-c2ccc3nc(-c4cccnc4N)n(-c4ccc(C5(N)CCC5)cc4)c3n2)c1 [Example 432, 3-{3-[4-(1-aminocyclobutyl)phenyl]-2-(2-aminopyridin-3-yl)-3H-imidazo[4,5-b]pyridin-5-yl}-5-fluoro-N-methylbenzamide] |
| 0.0018 µM | CN1CCOc2cc(-c3ccc4nc(-c5cccnc5N)n(-c5ccc(C6(N)CCC6)cc5)c4n3)ccc21 [Example 433, 3-{3-[4-(1-aminocyclobutyl)phenyl]-5-(4-methyl-3,4-dihydro-2H-1,4-benzoxazin-7-yl)-3H-imidazo[4,5-b]pyridin-2-yl}pyridin-2-amine] |
| 0.005 µM | Nc1ncccc1-c1nc2ccc(-c3ccc(O)c(F)c3)nc2n1-c1ccc(C2(N)CCC2)cc1 [Example 434, 4-{3-[4-(1-aminocyclobutyl)phenyl]-2-(2-aminopyridin-3-yl)-3H-imidazo[4,5-b]pyridin-5-yl}-2-fluorophenol] |
| 0.01 µM | Nc1ncccc1-c1nc2ccc(-c3cc(O)cc(F)c3)nc2n1-c1ccc(C2(N)CCC2)cc1 [Example 435, 3-{3-[4-(1-aminocyclobutyl)phenyl]-2-(2-aminopyridin-3-yl)-3H-imidazo[4,5-b]pyridin-5-yl}-5-fluorophenol] |
| 0.0078 µM | Nc1ncccc1-c1nc2ccc(-c3ccc(F)c(O)c3)nc2n1-c1ccc(C2(N)CCC2)cc1 [Example 436, 5-{3-[4-(1-aminocyclobutyl)phenyl]-2-(2-aminopyridin-3-yl)-3H-imidazo[4,5-b]pyridin-5-yl}-2-fluorophenol] |
| 0.014 µM | Nc1ncccc1-c1nc2ccc(-c3cc(O)ccc3F)nc2n1-c1ccc(C2(N)CCC2)cc1 [Example 437, 3-{3-[4-(1-aminocyclobutyl)phenyl]-2-(2-aminopyridin-3-yl)-3H-imidazo[4,5-b]pyridin-5-yl}-4-fluorophenol] |
| 0.0079 µM | CN1C(=O)COc2ccc(-c3ccc4nc(-c5cccnc5N)n(-c5ccc(C6(N)CCC6)cc5)c4n3)cc21 [Example 438, 6-{3-[4-(1-aminocyclobutyl)phenyl]-2-(2-aminopyridin-3-yl)-3H-imidazo[4,5-b]pyridin-5-yl}-4-methyl-2H-1,4-benzoxazin-3(4H)-one] |
| 0.0026 µM | Nc1ncccc1-c1nc2ccc(-c3ccnc(N4CCOCC4)c3)nc2n1-c1ccc(C2(N)CCC2)cc1 [Example 439, 3-{3-[4-(1-aminocyclobutyl)phenyl]-5-(2-morpholin-4-ylpyridin-4-yl)-3H-imidazo[4,5-b]pyridin-2-yl}pyridin-2-amine] |
| 0.0054 µM | CNC(=O)c1cc(-c2ccc3nc(-c4cccnc4N)n(-c4ccc(C5(N)CCC5)cc4)c3n2)ccc1F [Example 440, 5-{3-[4-(1-aminocyclobutyl)phenyl]-2-(2-aminopyridin-3-yl)-3H-imidazo[4,5-b]pyridin-5-yl}-2-fluoro-N-methylbenzamide] |
| 0.0066 µM | CCNC(=O)c1cccc(-c2ccc3nc(-c4cccnc4N)n(-c4ccc(C5(N)CCC5)cc4)c3n2)c1 [Example 441, 3-{3-[4-(1-aminocyclobutyl)phenyl]-2-(2-aminopyridin-3-yl)-3H-imidazo[4,5-b]pyridin-5-yl}-N-ethylbenzamide] |
| 0.0049 µM | Nc1ncccc1-c1nc2ccc(-c3cccc4[nH]ncc34)nc2n1-c1ccc(C2(N)CCC2)cc1 [Example 442, 3-{3-[4-(1-aminocyclobutyl)phenyl]-5-(1H-indazol-4-yl)-3H-imidazo[4,5-b]pyridin-2-yl}pyridin-2-amine] |
| 0.012 µM | Cc1ccc(-c2ccc3nc(-c4cccnc4N)n(-c4ccc(C5(N)CCC5)cc4)c3n2)cc1O [Example 443, 5-{3-[4-(1-aminocyclobutyl)phenyl]-2-(2-aminopyridin-3-yl)-3H-imidazo[4,5-b]pyridin-5-yl}-2-methylphenol] |
| 0.0068 µM | COc1cccc(-c2ccc3nc(-c4cccnc4N)n(-c4ccc(C5(N)CCC5)cc4)c3n2)c1C#N [Example 444, 2-{3-[4-(1-aminocyclobutyl)phenyl]-2-(2-aminopyridin-3-yl)-3H-imidazo[4,5-b]pyridin-5-yl}-6-methoxybenzonitrile] |
| 0.014 µM | Nc1ncccc1-c1nc2ccc(-c3cccc(O)c3F)nc2n1-c1ccc(C2(N)CCC2)cc1 [Example 445, 3-{3-[4-(1-aminocyclobutyl)phenyl]-2-(2-aminopyridin-3-yl)-3H-imidazo[4,5-b]pyridin-5-yl}-2-fluorophenol] |
| 0.0089 µM | Nc1ncccc1-c1nc2ccc(-c3c[nH]c4ccncc34)nc2n1-c1ccc(C2(N)CCC2)cc1 [Example 446, 3-{3-[4-(1-aminocyclobutyl)phenyl]-5-(1H-pyrrolo[3,2-c]pyridin-3-yl)-3H-imidazo[4,5-b]pyridin-2-yl}pyridin-2-amine] |
| 0.045 µM | Nc1ncccc1-c1nc2ccc(-c3ccc(O)nc3)nc2n1-c1ccc(C2(N)CCC2)cc1 [Example 447, 5-{3-[4-(1-aminocyclobutyl)phenyl]-2-(2-aminopyridin-3-yl)-3H-imidazo[4,5-b]pyridin-5-yl}pyridin-2-ol] |

| IC50 | SMILES |
| --- | --- |
| 0.0039 µM | Nc1ncccc1-c1nc2ccc(-c3ccnc(O)c3)nc2n1-c1ccc(C2(N)CCC2)cc1 [Example 448, 4-{3-[4-(1-aminocyclobutyl)phenyl]-2-(2-aminopyridin-3-yl)-3H-imidazo[4,5-b]pyridin-5-yl}pyridin-2-ol] |
| 0.0023 µM | Nc1ncccc1-c1nc2ccc(-c3cccc(N4CCCC4)c3)nc2n1-c1ccc(C2(N)CCC2)cc1 [Example 449, 3-{3-[4-(1-aminocyclobutyl)phenyl]-5-(3-pyrrolidin-1-ylphenyl)-3H-imidazo[4,5-b]pyridin-2-yl}pyridin-2-amine] |
| 0.0072 µM | CNC(=O)c1ccc(-c2ccc3nc(-c4cccnc4N)n(-c4ccc(C5(N)CCC5)cc4)c3n2)cc1F [Example 450, 4-{3-[4-(1-aminocyclobutyl)phenyl]-2-(2-aminopyridin-3-yl)-3H-imidazo[4,5-b]pyridin-5-yl}-2-fluoro-N-methylbenzamide] |
| 0.0071 µM | Nc1ncccc1-c1nc2ccc(-c3cccc(N4CCOCC4)n3)nc2n1-c1ccc(C2(N)CCC2)cc1 [Example 451, 3-{3-[4-(1-aminocyclobutyl)phenyl]-5-(6-morpholin-4-ylpyridin-2-yl)-3H-imidazo[4,5-b]pyridin-2-yl}pyridin-2-amine] |
| 0.0041 µM | Nc1ncccc1-c1nc2ccc(-c3ccc4[nH]ccc4c3)nc2n1-c1ccc(C2(N)CCC2)cc1 [Example 452, 3-{3-[4-(1-aminocyclobutyl)phenyl]-5-(1H-indol-5-yl)-3H-imidazo[4,5-b]pyridin-2-yl}pyridin-2-amine] |
| 0.0028 µM | Nc1ncccc1-c1nc2ccc(-c3ccc4c(c3)CC(=O)N4)nc2n1-c1ccc(C2(N)CCC2)cc1 [Example 453, 5-{3-[4-(1-aminocyclobutyl)phenyl]-2-(2-aminopyridin-3-yl)-3H-imidazo[4,5-b]pyridin-5-yl}-1,3-dihydro-2H-indol-2-one] |
| 0.0094 µM | Nc1ncccc1-c1nc2ccc(-c3cccc4c3CC(=O)N4)nc2n1-c1ccc(C2(N)CCC2)cc1 [Example 454, 4-{3-[4-(1-aminocyclobutyl)phenyl]-2-(2-aminopyridin-3-yl)-3H-imidazo[4,5-b]pyridin-5-yl}-1,3-dihydro-2H-indol-2-one] |
| 0.011 µM | CN(C)S(=O)(=O)Nc1cccc(-c2ccc3nc(-c4cccnc4N)n(-c4ccc(C5(N)CCC5)cc4)c3n2)c1 [Example 455, N′-(3-{3-[4-(1-aminocyclobutyl)phenyl]-2-(2-aminopyridin-3-yl)-3H-imidazo[4,5-b]pyridin-5-yl}phenyl)-N,N-dimethylsulfamide] |
| 0.0031 µM | Nc1ncccc1-c1nc2ccc(-c3cccc(-n4cccn4)c3)nc2n1-c1ccc(C2(N)CCC2)cc1 [Example 456, 3-{3-[4-(1-aminocyclobutyl)phenyl]-5-[3-(1H-pyrazol-1-yl)phenyl]-3H-imidazo[4,5-b]pyridin-2-yl}pyridin-2-amine] |
| 0.0093 µM | Nc1ncccc1-c1nc2ccc(-c3cccc(N4CCC4)c3)nc2n1-c1ccc(C2(N)CCC2)cc1 [Example 457, 3-{3-[4-(1-aminocyclobutyl)phenyl]-5-(3-azetidin-1-ylphenyl)-3H-imidazo[4,5-b]pyridin-2-yl}pyridin-2-amine] |
| 0.012 µM | Nc1ncccc1-c1nc2ccc(-c3cccc(N4CCCCCC4)c3)nc2n1-c1ccc(C2(N)CCC2)cc1 [Example 458, 3-{3-[4-(1-aminocyclobutyl)phenyl]-5-(3-azepan-1-ylphenyl)-3H-imidazo[4,5-b]pyridin-2-yl}pyridin-2-amine] |
| 0.0077 µM | Nc1ncccc1-c1nc2ccc(-c3cccc(N4CCCOCC4)c3)nc2n1-c1ccc(C2(N)CCC2)cc1 [Example 459, 3-{3-[4-(1-aminocyclobutyl)phenyl]-5-[3-(1,4-oxazepan-4-yl)phenyl]-3H-imidazo[4,5-b]pyridin-2-yl}pyridin-2-amine] |
| 0.011 µM | CN(C)C1CCN(c2cccc(-c3ccc4nc(-c5cccnc5N)n(-c5ccc(C6(N)CCC6)cc5)c4n3)c2)CC1 [Example 460, 3-(3-[4-(1-aminocyclobutyl)phenyl]-5-{3-[4-(dimethylamino)piperidin-1-yl]phenyl}-3H-imidazo[4,5-b]pyridin-2-yl)pyridin-2-amine] |
| 0.01 µM | Nc1ncccc1-c1nc2ccc(-c3cccc(N4CCC(O)CC4)c3)nc2n1-c1ccc(C2(N)CCC2)cc1 [Example 462, 1-(3-{3-[4-(1-aminocyclobutyl)phenyl]-2-(2-aminopyridin-3-yl)-3H-imidazo[4,5-b]pyridin-5-yl}phenyl)piperidin-4-ol] |
| 0.011 µM | Nc1ncccc1-c1nc2ccc(-c3cccc(N4CCC5(CC4)OCCO5)c3)nc2n1-c1ccc(C2(N)CCC2)cc1 [Example 464, 3-{3-[4-(1-aminocyclobutyl)phenyl]-5-[3-(1,4-dioxa-8-azaspiro[4.5]dec-8-yl)phenyl]-3H-imidazo[4,5-b]pyridin-2-yl}pyridin-2-amine] |

Same assay, conditions: values not marked with "*"; read-out: Akt1 IC50, (AlphaScreen)

| IC50 | SMILES |
| --- | --- |
| 0.018 µM | Nc1ncccc1-c1nc2ccc(-c3cccc(N4CCCCC4)c3)nc2n1-c1ccc(C2(N)CCC2)cc1 [Example 431, 3-{3-[4-(1-aminocyclobutyl)phenyl]-5-(3-piperidin-1-ylphenyl)-3H-imidazo[4,5-b]pyridin-2-yl}pyridin-2-amine] |
